# Test results reported in patent US9290511B2, “Thieno-pyrimidines, useful as potassium channel inhibitors” (XENTION LIMITED, priority 2011, dated 2016).
# Target: T1, Kir3.1/3.4 (Rattus norvegicus, UniProt P48548+P63251)
# T1 construct: expressed in transfected cells
# T1 sequence (P63251 1-501): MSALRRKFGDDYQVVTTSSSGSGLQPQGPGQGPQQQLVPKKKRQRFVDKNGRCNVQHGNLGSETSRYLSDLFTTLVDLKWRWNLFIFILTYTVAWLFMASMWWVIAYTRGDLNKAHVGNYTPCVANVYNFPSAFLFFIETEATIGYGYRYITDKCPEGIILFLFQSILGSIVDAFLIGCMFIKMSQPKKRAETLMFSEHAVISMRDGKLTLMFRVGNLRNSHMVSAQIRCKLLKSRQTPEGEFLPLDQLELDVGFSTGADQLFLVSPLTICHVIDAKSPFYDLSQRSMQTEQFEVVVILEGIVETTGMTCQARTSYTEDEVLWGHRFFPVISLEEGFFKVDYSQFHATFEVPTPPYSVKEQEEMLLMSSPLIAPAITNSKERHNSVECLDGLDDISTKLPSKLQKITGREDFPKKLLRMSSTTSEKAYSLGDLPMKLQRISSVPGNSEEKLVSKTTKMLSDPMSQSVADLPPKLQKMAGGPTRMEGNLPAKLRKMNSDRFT
# T1 sequence (P48548 1-419): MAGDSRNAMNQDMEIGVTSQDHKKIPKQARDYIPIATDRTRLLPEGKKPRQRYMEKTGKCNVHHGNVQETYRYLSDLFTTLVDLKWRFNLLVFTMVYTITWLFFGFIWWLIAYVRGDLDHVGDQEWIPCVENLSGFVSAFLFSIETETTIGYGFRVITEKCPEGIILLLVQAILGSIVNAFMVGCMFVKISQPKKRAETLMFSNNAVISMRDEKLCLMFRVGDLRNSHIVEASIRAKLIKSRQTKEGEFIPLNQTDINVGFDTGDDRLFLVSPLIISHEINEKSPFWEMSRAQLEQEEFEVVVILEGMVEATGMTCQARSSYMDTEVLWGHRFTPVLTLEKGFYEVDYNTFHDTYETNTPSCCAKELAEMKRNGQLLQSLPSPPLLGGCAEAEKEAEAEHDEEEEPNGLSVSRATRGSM
# Assay: Kir3.1/3.4 Q-patch Method (automated patch clamp, Sophion Q-patch)
# Format: cell-based
# Conditions: HEK293 cells stably-expressing Kir3.1/3.4; current at -120 mV; QPatch-16 or QPatch-48
# Description: For automated patch-clamp studies using the Sophion Q-patch, accumulative concentration-responses experiments were conducted to determine compound activity against the ion channel target. Voltage-clamp experiments were performed using HEK293 cells stably-expressing Kir3.1/3.4 using either a QPatch-16 or QPatch-48 (Sophion Bioscience A/S). A voltage waveform (VHold−20 mV, step to 60 mV for 100 ms, ramp to −120 mV over 500 ms, hold at −120 mV for 100 ms before returning to VHold) was repeatedly applied to the cells under voltage-clamp at a frequency of 0.1 Hz to elicit Kir3.1/3.4 currents. Mean current at −120 mV was measured in the absence (Icontrol) and presence of drug (IDrug). Assessment of passive leak was performed by removal of external potassium (IZero). Leak current was subtracted from control and drug recordings. Current inhibition (%) was calculated as {1−[(IDrug−IZero)/(IControl−IZero)]}*100. Data were fitted with a sigmoidal function to yield an IC50 and Hill coefficient. Composition of external experimental buffer was (in mM): 40 NaCl, 100 KCl, 5 CaCl2, 1 MgCl2, 10 HEPES pH 7.4. Composition of internal solution was (in mM). 40 K-gluconate, 60 KF, 20 NaCl, 5 Mg-ATP, 0.9 GTPgS, 20 EGTA, pH 7.2. Compounds were formulated in DMSO and diluted in buffer to give a final drug concentration of between […] and a final DMSO concentration of 0.1-0.3%.
row,Structure (SMILES),IC50
1,"COc1ccccc1-c1csc2nc(N3CCOC(C(N)=O)C3)nc(N3C4CCC3COC4)c12 (stereo not drawn) [Example 418, 4-[5-(2-methoxyphenyl)-4-(3-oxa-8-azabicyclo[3.2.1]octan-8-yl)thieno[2,3-d]pyrimidin-2-yl]morpholine-2-carboxamide]",500 to 3000 nM
2,"COC1CC2CCC(C1)N2c1nc(N2CCCC(C(N)=O)C2)c2c(-c3ccccc3Cl)csc2n1 (stereo not drawn) [Example 374, 1-[5-(2-chlorophenyl)-2-(3-methoxy-8-azabicyclo[3.2.1]octan-8-yl)thieno[2,3-d]pyrimidin-4-yl]piperidine-3-carboxamide]",< 500 nM
3,"COc1ccccc1-c1csc2nc(N3CCNC(=O)C3)nc(N3C4CCC3COC4)c12 [Example 403, 4-[5-(2-methoxyphenyl)-4-(3-oxa-8-azabicyclo[3.2.1]octan-8-yl)thieno[2,3-d]pyrimidin-2-yl]piperazin-2-one]",< 500 nM
4,"COc1ccccc1-c1csc2nc(C#N)nc(N3C4CCC3CC(OC)C4)c12 (stereo not drawn) [Example 405, 4-(3-methoxy-8-azabicyclo[3.2.1]octan-8-yl)-5-(2-methoxyphenyl)thieno[2,3-d]pyrimidine-2-carbonitrile]",500 to 3000 nM
5,"COc1ccccc1-c1csc2nc(N3CCC(C(N)=O)C3)nc(N3C4CCC3COC4)c12 (stereo not drawn) [Example 401, 1-[5-(2-methoxyphenyl)-4-(3-oxa-8-azabicyclo[3.2.1]octan-8-yl)thieno[2,3-d]pyrimidin-2-yl]pyrrolidine-3-carboxamide]",500 to 3000 nM
6,"O=C1CN(c2nc(N3C4CCC3COC4)c3c(-c4ccccc4Cl)csc3n2)CCN1 [Example 424, 4-[5-(2-chlorophenyl)-4-(3-oxa-8-azabicyclo[3.2.1]octan-8-yl)thieno[2,3-d]pyrimidin-2-yl]piperazin-2-one]",< 500 nM
7,"COc1ccccc1-c1csc2nc(N3CCNC(C(N)=O)C3)nc(N3C4CCC3CC(OC)C4)c12 (stereo not drawn) [Example 394, 4-[4-(3-methoxy-8-azabicyclo[3.2.1]octan-8-yl)-5-(2-methoxyphenyl)thieno[2,3-d]pyrimidin-2-yl]piperazine-2-carboxamide]",< 500 nM
8,"COc1ccccc1-c1csc2nc(N3CCCC(C(N)=O)C3)nc(N3C4CCC3CC(OC)C4)c12 (stereo not drawn) [Example 390, 1-[4-(3-methoxy-8-azabicyclo[3.2.1]octan-8-yl)-5-(2-methoxyphenyl)thieno[2,3-d]pyrimidin-2-yl]piperidine-3-carboxamide]",500 to 3000 nM
9,"COc1ccccc1-c1csc2nc(N3C4CCC3CC(O)C4)nc(N3C4CCC3CC(OC)C4)c12 (stereo not drawn) [Example 377, 8-[4-(3-methoxy-8-azabicyclo[3.2.1]octan-8-yl)-5-(2-methoxyphenyl)thieno[2,3-d]pyrimidin-2-yl]-8-azabicyclo[3.2.1]octan-3-ol]",500 to 3000 nM
10,"COCC1CC2CCC(C1)N2c1nc(C#N)nc2scc(-c3ccccc3OC)c12 (stereo not drawn) [Example 406, 4-[3-(methoxymethyl)-8-azabicyclo[3.2.1]octan-8-yl]-5-(2-methoxyphenyl)thieno[2,3-d]pyrimidine-2-carbonitrile]",< 500 nM
11,"Clc1ccccc1-c1csc2nc(N3CCOCC3)nc(N3C4CCC3COC4)c12 [Example 425, 8-[5-(2-chlorophenyl)-2-morpholino-thieno[2,3-d]pyrimidin-4-yl]-3-oxa-8-azabicyclo[3.2.1]octane]",< 500 nM
12,"COc1ccccc1-c1csc2nc(N3C4CCC3COC4)nc(N3C4CCC3CC(OC)C4)c12 (stereo not drawn) [Example 379, 8-[4-(3-methoxy-8-azabicyclo[3.2.1]octan-8-yl)-5-(2-methoxyphenyl)thieno[2,3-d]pyrimidin-2-yl]-3-oxa-8-azabicyclo[3.2.1]octane]",500 to 3000 nM
13,"COc1ccccc1-c1csc2nc(N3C4CCC3CC(CO)C4)nc(N3CCNC(=O)C3)c12 (stereo not drawn) [Example 413, 4-[2-[3-(hydroxymethyl)-8-azabicyclo[3.2.1]octan-8-yl]-5-(2-methoxyphenyl)thieno[2,3-d]pyrimidin-4-yl]piperazin-2-one]",< 500 nM
14,"COc1ccccc1-c1csc2nc(N3CCNC(C(N)=O)C3)nc(N3C4CCC3COC4)c12 (stereo not drawn) [Example 398, 4-[5-(2-methoxyphenyl)-4-(3-oxa-8-azabicyclo[3.2.1]octan-8-yl)thieno[2,3-d]pyrimidin-2-yl]piperazine-2-carboxamide]",< 500 nM
15,"NC(=O)C1CCCN(c2nc(N3C4CCC3COC4)nc3scc(-c4ccccc4Cl)c23)C1 (stereo not drawn) [Example 411, 1-[5-(2-chlorophenyl)-2-(3-oxa-8-azabicyclo[3.2.1]octan-8-yl)thieno[2,3-d]pyrimidin-4-yl]piperidine-3-carboxamide]",500 to 3000 nM
16,"NC(=O)C1CN(c2nc(N3C4CCC3COC4)nc3scc(-c4ccccc4Cl)c23)CCN1 (stereo not drawn) [Example 417, 4-[5-(2-chlorophenyl)-2-(3-oxa-8-azabicyclo[3.2.1]octan-8-yl)thieno[2,3-d]pyrimidin-4-yl]piperazine-2-carboxamide]",500 to 3000 nM
17,"COC1CC2CCC(C1)N2c1nc(N2CCOC(C(N)=O)C2)nc2scc(-c3ccccc3Cl)c12 (stereo not drawn) [Example 408, 4-[5-(2-chlorophenyl)-4-(3-methoxy-8-azabicyclo[3.2.1]octan-8-yl)thieno[2,3-d]pyrimidin-2-yl]morpholine-2-carboxamide]",< 500 nM
18,"OC1CCN(c2nc(N3C4CCC3COC4)c3c(-c4ccccc4Cl)csc3n2)C1 (stereo not drawn) [Example 426, 1-[5-(2-chlorophenyl)-4-(3-oxa-8-azabicyclo[3.2.1]octan-8-yl)thieno[2,3-d]pyrimidin-2-yl]pyrrolidin-3-ol]",< 500 nM
19,"COCC1CC2CCC(C1)N2c1nc(N2CCC(C(N)=O)C2)nc2scc(-c3ccccc3OC)c12 (stereo not drawn) [Example 376, 1-[4-[3-(methoxymethyl)-8-azabicyclo[3.2.1]octan-8-yl]-5-(2-methoxyphenyl)thieno[2,3-d]pyrimidin-2-yl]pyrrolidine-3-carboxamide]",500 to 3000 nM
20,"COc1ccccc1-c1csc2nc(N3C4CCC3COC4)nc(N3C4CCC3COC4)c12 [Example 402, 8-[5-(2-methoxyphenyl)-2-(3-oxa-8-azabicyclo[3.2.1]octan-8-yl)thieno[2,3-d]pyrimidin-4-yl]-3-oxa-8-azabicyclo[3.2.1]octane]",500 to 3000 nM
21,"NC(=O)C1CN(c2nc(N3C4CCC3COC4)c3c(-c4ccccc4Cl)csc3n2)CCN1 (stereo not drawn) [Example 416, 4-[5-(2-chlorophenyl)-4-(3-oxa-8-azabicyclo[3.2.1]octan-8-yl)thieno[2,3-d]pyrimidin-2-yl]piperazine-2-carboxamide]",< 500 nM
22,"OC1CC2CCC(C1)N2c1nc(N2C3CCC2COC3)c2c(-c3ccccc3Cl)csc2n1 (stereo not drawn) [Example 421, 8-[5-(2-chlorophenyl)-4-(3-oxa-8-azabicyclo[3.2.1]octan-8-yl)thieno[2,3-d]pyrimidin-2-yl]-8-azabicyclo[3.2.1]octan-3-ol]",< 500 nM
23,"COC1CC2CCC(C1)N2c1nc(N2CCNC(C(N)=O)C2)nc2scc(-c3ccccc3Cl)c12 (stereo not drawn) [Example 392, 4-[5-(2-chlorophenyl)-4-(3-methoxy-8-azabicyclo[3.2.1]octan-8-yl)thieno[2,3-d]pyrimidin-2-yl]piperazine-2-carboxamide]",< 500 nM

# Target: T1, Kir3.1/3.4
# Assay: Kir3.1/3.4 Electrophysiology Method (manual whole-cell patch clamp)
# Format: cell-based
# Conditions: Electrophysiology Method (TABLE 1)
# Outline: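 Manual whole-cell patch clamp on HEK293 cells stably expressing rat Kir3.1/3.4, with GTPγS in the pipette. Cells were held at −60 mV and stepped to +60 mV, then ramped to −140 mV every 10 s. Steady-state inhibition at −140 mV was measured after subtracting leak recorded in zero-K+ bath.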
row,Structure (SMILES),IC50
1,"CN1CCC(N(C)CC2CCN(c3nc(CN4CCCC4=O)nc4scc(-c5ccccc5)c34)CC2)C1 (stereo not drawn) [Example 244, 1-[[4-[4-[[methyl-(1-methylpyrrolidin-3-yl)amino]methyl]-1-piperidyl]-5-phenyl-thieno[2,3-d]pyrimidin-2-yl]methyl]pyrrolidin-2-one]",< 500 nM
